Source: PubChem BioAssay (NCI)
Several values for one entry are separate records, joined by “and”; a condition that tells them apart may be missing. Equal values may be shown once.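 Protocol summary: plate cells (96-well), add compound at 5 concentrations, incubate 48 h, interpolate endpoints linearly. GI50 marks 50% less growth. TGI denotes the concentration required for complete inhibition of growth.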

How the values were obtained:
Test in all cases: growth of human tumour cells (NCI), 48 h
A498 renal = test system: A498 renal
CAKI-1 renal = test system: CAKI-1 renal
EKVX NSCLC = test system: EKVX NSCLC
K-562 leukemia = test system: K-562 leukemia
MOLT-4 leukemia = test system: MOLT-4 leukemia
NCI-H23 lung = test system: NCI-H23 lung
NCI-H460 lung = test system: NCI-H460 lung
NCI/ADR-RES ovarian = test system: NCI/ADR-RES ovarian
SF-295 CNS = test system: SF-295 CNS
U251 CNS = test system: U251 CNS

| Structure (SMILES) | TGI (A498 renal) | TGI (CAKI-1 renal) | TGI (EKVX NSCLC) | TGI (K-562 leukemia) | TGI (MOLT-4 leukemia) | TGI (NCI-H23 lung) | TGI (NCI-H460 lung) | TGI (NCI/ADR-RES ovarian) | TGI (SF-295 CNS) | TGI (U251 CNS) | GI50 (A498 renal) | GI50 (CAKI-1 renal) | GI50 (EKVX NSCLC) | GI50 (K-562 leukemia) | GI50 (MOLT-4 leukemia) | GI50 (NCI-H23 lung) | GI50 (NCI-H460 lung) | GI50 (NCI/ADR-RES ovarian) | GI50 (SF-295 CNS) | GI50 (U251 CNS) |
| --- | --- | --- | --- | --- | --- | --- | --- | --- | --- | --- | --- | --- | --- | --- | --- | --- | --- | --- | --- | --- |
| C=C1C(=O)OC2C1C(OC(=O)/C(C)=C/C)CC(O)(CCl)C1C(OC(C)=O)C=C(C)C21O (stereo not given) | > 53.6 µM | 17.7 µM | 24.7 µM | > 37.4 µM | 21.1 µM | 34.1 µM | 46.1 µM | 61 µM | > 100 µM | 41.2 µM | – | – | – | – | – | – | – | – | – | – |
| COc1cc2c3c(n(CCCO)c(=O)c2cc1OC)-c1cc2c(cc1C3=O)OCO2 | > 73 µM | > 19.6 µM | > 100 µM | > 47 µM | 6.7 µM | 28.3 µM | > 100 µM | > 53.4 µM | > 48.3 µM | 27.8 µM | 42.8 µM | 0.465 µM | 54.7 µM | 6.96 µM | 0.841 µM | 6.75 µM | 0.845 µM | 3.95 µM | 1.17 µM | 2.63 µM |
| O=c1oc2ccccc2cc1-c1ccc([N+](=O)[O-])cc1 | > 100 µM | > 100 µM | > 100 µM | > 100 µM | > 100 µM | > 100 µM | > 100 µM | > 100 µM | > 100 µM | > 51.9 µM | – | – | – | – | – | – | – | – | – | – |
| COC(=O)c1ccc(-c2nc3cc(F)c(F)cc3nc2C#N)cc1 | 23.9 µM | 18.5 µM | 19.5 µM | 16.3 µM | 12.3 µM | 17 µM | 19.2 µM | 10.4 µM | 15.5 µM | 21.4 µM | 14.4 µM | 8.48 µM | 9.89 µM | 1.9 µM | 3.27 µM | 9.12 µM | 9.86 µM | 4.21 µM | 7.26 µM | 10.1 µM |
| O=C(Oc1cccc(Nc2ncnc3ccccc23)c1)c1ccccc1Cl | 49.4 µM | 35.8 µM | 91.5 µM | > 100 µM | > 100 µM | 31.8 µM | 52.7 µM | 40.7 µM | 47.5 µM | 63.5 µM | 23.8 µM | 9.6 µM | 7.4 µM | 43.1 µM | > 100 µM | 13 µM | 20.3 µM | 14.5 µM | 20 µM | 25.4 µM |
| O=C1C(Cl)=C(Oc2ccccc2)C(=O)c2ccccc21 | 22.6 µM | 4.03 µM | 24 µM | > 100 µM | 30.7 µM | 24.5 µM | 23.1 µM | 37.9 µM | 11.3 µM | 13.4 µM | 9.24 µM | 1.8 µM | 4.77 µM | 3.17 µM | 4.09 µM | 9.49 µM | 5.57 µM | 7.75 µM | 3.03 µM | 3.57 µM |
| O=C1NC(=O)[C@@H](c2cn3c4c(cccc24)CCC3)[C@@H]1c1c[nH]c2ccccc12 | > 2.68 µM and 3.22 µM | > 10 µM and 31.4 µM | > 10 µM and 29.3 µM | > 10 µM and 18.6 µM | > 10 µM and 18.1 µM | > 10 µM and 16.8 µM | > 10 µM and 8.55 µM | > 4.71 µM and 9.55 µM | > 10 µM and 5.08 µM | > 10 µM and 12.9 µM | 0.283 µM and 0.292 µM | 0.332 µM and 0.518 µM | 0.482 µM and 0.991 µM | 0.182 µM and 0.312 µM | 0.717 µM and 0.891 µM | 0.545 µM and 0.53 µM | 0.365 µM and 0.372 µM | 0.327 µM and 0.369 µM | 0.33 µM and 0.26 µM | 0.391 µM and 0.451 µM |
